In patent EP2703005A1, “Inhibitors of alpha6 Integrin/E-Cadherin Complex” (Università Degli Studi Di Torino, priority 2012, dated 2014):

What was measured:
SW-48 [1] = test: Liver adhesion assay on frozen sections of grossly normal human liver; format: cell-based; conditions: 30 minutes, versus control peptide
Protocol: (§1) Adhesion, proliferation, and migration assays. All the described in vitro tests were performed at least in triplicate. For investigation of cell adhesion to peptides and proteins, 1 µg of each substrate was incubated per well of a 96 well-plate for 1 hour at 37°C. After a blocking step in IMDM, 2% FCS for 1 hour at 37°C, 10^4 cells were allowed to adhere for 1 hour at 37°C. Samples were washed gently in PBS, and cells were fixed in 8% glutaraldehyde and stained in 0.25% crystal violet in 10% methanol. For tissue adhesion, OCT-frozen grossly normal liver samples were cut into 10 µm sections. Tissues were blocked in IMDM, 2% FCS for 30 minutes at 37°C, followed by incubation with 5x10^4 cells in 5% CO2 at 37°C, for the indicated periods of time. Samples were washed 4 times in the same medium and once in PBS, fixed in 4% para-formaldehyde, and stained with hematoxylin (BioOptica). Adhered cells were counted manually under a light microscope.

NCI-H630 cells [2] = test: as above; format: cell-based; conditions: liver sections from 27 patients, 30 minutes, versus control peptide
Protocol: as §1

HCT-116 cells = test: as above; format: cell-based; conditions: non-metastatic cells with very low levels of the receptor proteins; 30 minutes
Protocol: as §1

HT-29 = test: as above; format: cell-based; conditions: 30 minutes, versus control peptide
Protocol: as §1

DLD-1 [3] = test: as above; format: cell-based; conditions: 30 minutes, versus control peptide
Protocol: as §1

HCT-116m [4] = test: as above; format: cell-based; conditions: 30 minutes, versus control peptide
Protocol: as §1

[5] = system: U293 cells stably overexpressing E-cadherin, α6 integrin or both; test: Cell proliferation assay (crystal violet); format: cell-based, human; conditions: 100 µM peptide, 10% FCS, versus control peptide
From the text: Preparation of cells stably overexpressing the MTS-targeted proteins. The cDNA of FLAG-tagged human angiopoietin-like 6, inserted into pcDNA3.1 (+).Neo vector (pcDNA3.ANGL6), was a gift from Dr. Y. Oike (Japan Science and Technology Agency, Japan (Minn et al., 2007, Proc Natl Acad Sci USA, 104:6740-6745); the cDNA of human E-cadherin, cloned into a pcDNA3.1 (+). Neo vector (pcDNA3.CAD1) was a gift from Dr. C. Gottardi (North Western University Medical School, Chicago, IL (Bos, et al. 2009, Nature 459:1005-1009); the cDNA of β4 integrin, cloned into a PRK5 plasmid (pRK5.ITB4), was purchased from Addgene (Cambridge, MA); the cDNA of human α6A integrin, inserted in pLXSN plasmid (pLα6SN (Kuo et al. 1995, Proc Natl Acad Sci USA, 92:12085-12089), was a gift of Dr. A. Magrelli (La Sapienza University, Rome, Italy). The latter was PCR-amplified with the following primer pair: • 5'-[…]-3' (SEQ ID No 28) and • 5'-[…]-3' (SEQ ID No 29) and subcloned into a pcDNA3.1 (+). […]
To test the effects of peptides on cell proliferation, we seeded 2x10^4 cells per well in a 24-well plate, in the presence of either control or […] peptide (100 µM). […] Cell growth was evaluated by absorbance at 590 nm in a microplate reader (Perkin Elmerm Waltham, MA). A calibration curve was set up with known numbers of cells and a linear correlation between absorbance and cell counts was established up to 5x10^5 cells/well.

SW-48 [6] = test: Liver homing model, intrasplenic implantation; format: in vivo, CD-1 nude mice; conditions: 2x10^6/mouse intrasplenically with 100 µM soluble peptide, versus vehicle
Protocol: (§2) Animal models of human metastatic CRC. Six-week female CD1-nude mice were purchased from Charles River (Lecco, Italy). Animals were subjected to intraperitoneal anaesthesia with a mixture composed by 0.75 mg/ml xylazine (Xilor®, BIO98, Milan, Italy), 1 mg/ml tiletamine - 1mg/ml zolazepam (Zoletil®, Virbac, Milan, Italy), in physiological solution. After the mice were deeply asleep, a midline incision was performed and target organs were gently exposed. Two or five million suspended cells were injected in 50 µl of culture medium intrasplenically (Tibbettset al. 1993. Cancer, 71:315-321) or into the median liver lobe (Grothey, et al. 2009. Nat Rev Clin Oncol, 6:507-518), respectively. To investigate a pharmacological intervention on liver homing and/or colonization of CRC cells, animals were divided in two arms, receiving medium alone (vehicle) or supplemented with 100 µM […] peptide. The wound was closed by a double suture and each animal was given 0.1 mg caprofen (Rymadil®, Pfizer, Milan, Italy) in a physiological solution to allow post-operative pain relief and rehydration. Mice were strictly monitored until completely awake, and oral ampicillin was administered for 5 days following the surgery. Mice were euthanized at the indicated time points, and organs were photographed with a PL-200 digital photocamera (Samsung Electronics, Milan, Italy). External metastatic areas were quantified using ImageJ software.

LS-174T = test: Liver homing model, intrasplenic implantation; format: in vivo, CD-1 nude mice; conditions: 2x10^6/mouse intrasplenically with 100 µM soluble peptide, versus vehicle
Protocol: as §2

DLD-1 [7] = test: Liver homing model, intrasplenic implantation; format: in vivo, CD-1 nude mice; conditions: 2x10^6/mouse intrasplenically with 100 µM soluble peptide, versus vehicle; effect stated as not significant in this model
Protocol: as §2

HCCM-1544 = test: Liver homing model, intrasplenic implantation; format: in vivo, CD-1 nude mice; conditions: 2x10^6/mouse intrasplenically with 100 µM soluble peptide, versus vehicle
Protocol: as §2

HCT-116m [8] = test: Liver homing model, intrasplenic implantation; format: in vivo, CD-1 nude mice; conditions: 2x10^6/mouse intrasplenically with 100 µM soluble peptide, versus vehicle; 20 days
Protocol: as §2

LS-174T cells = test: Hepatic colonization model, intrahepatic injection of CRC cells; format: in vivo, CD-1 nude mice; conditions: 5x10^6 cells/mouse injected with 100 µM soluble peptide, 14 days, versus vehicle
Protocol: as §2, with “Mice were euthanized at the indicated time points, and organs were photographed with a PL-200 digital photocamera (Samsung Electronics, Milan, Italy).” left out

β4 integrin = molecular target: T1, β4 integrin (Homo sapiens, UniProt P16144+P23229); test: Affinity purification of liver metastasis lysates on column-immobilized peptide, ELISA for integrin subunits; format: binding; conditions: lysates of 7 pooled human liver metastases, versus salt and control peptide fractions
T1 construct: from tissue; host or cells: 7 pooled human liver metastases secondary to CRC
T1 sequence (P16144 28-1822): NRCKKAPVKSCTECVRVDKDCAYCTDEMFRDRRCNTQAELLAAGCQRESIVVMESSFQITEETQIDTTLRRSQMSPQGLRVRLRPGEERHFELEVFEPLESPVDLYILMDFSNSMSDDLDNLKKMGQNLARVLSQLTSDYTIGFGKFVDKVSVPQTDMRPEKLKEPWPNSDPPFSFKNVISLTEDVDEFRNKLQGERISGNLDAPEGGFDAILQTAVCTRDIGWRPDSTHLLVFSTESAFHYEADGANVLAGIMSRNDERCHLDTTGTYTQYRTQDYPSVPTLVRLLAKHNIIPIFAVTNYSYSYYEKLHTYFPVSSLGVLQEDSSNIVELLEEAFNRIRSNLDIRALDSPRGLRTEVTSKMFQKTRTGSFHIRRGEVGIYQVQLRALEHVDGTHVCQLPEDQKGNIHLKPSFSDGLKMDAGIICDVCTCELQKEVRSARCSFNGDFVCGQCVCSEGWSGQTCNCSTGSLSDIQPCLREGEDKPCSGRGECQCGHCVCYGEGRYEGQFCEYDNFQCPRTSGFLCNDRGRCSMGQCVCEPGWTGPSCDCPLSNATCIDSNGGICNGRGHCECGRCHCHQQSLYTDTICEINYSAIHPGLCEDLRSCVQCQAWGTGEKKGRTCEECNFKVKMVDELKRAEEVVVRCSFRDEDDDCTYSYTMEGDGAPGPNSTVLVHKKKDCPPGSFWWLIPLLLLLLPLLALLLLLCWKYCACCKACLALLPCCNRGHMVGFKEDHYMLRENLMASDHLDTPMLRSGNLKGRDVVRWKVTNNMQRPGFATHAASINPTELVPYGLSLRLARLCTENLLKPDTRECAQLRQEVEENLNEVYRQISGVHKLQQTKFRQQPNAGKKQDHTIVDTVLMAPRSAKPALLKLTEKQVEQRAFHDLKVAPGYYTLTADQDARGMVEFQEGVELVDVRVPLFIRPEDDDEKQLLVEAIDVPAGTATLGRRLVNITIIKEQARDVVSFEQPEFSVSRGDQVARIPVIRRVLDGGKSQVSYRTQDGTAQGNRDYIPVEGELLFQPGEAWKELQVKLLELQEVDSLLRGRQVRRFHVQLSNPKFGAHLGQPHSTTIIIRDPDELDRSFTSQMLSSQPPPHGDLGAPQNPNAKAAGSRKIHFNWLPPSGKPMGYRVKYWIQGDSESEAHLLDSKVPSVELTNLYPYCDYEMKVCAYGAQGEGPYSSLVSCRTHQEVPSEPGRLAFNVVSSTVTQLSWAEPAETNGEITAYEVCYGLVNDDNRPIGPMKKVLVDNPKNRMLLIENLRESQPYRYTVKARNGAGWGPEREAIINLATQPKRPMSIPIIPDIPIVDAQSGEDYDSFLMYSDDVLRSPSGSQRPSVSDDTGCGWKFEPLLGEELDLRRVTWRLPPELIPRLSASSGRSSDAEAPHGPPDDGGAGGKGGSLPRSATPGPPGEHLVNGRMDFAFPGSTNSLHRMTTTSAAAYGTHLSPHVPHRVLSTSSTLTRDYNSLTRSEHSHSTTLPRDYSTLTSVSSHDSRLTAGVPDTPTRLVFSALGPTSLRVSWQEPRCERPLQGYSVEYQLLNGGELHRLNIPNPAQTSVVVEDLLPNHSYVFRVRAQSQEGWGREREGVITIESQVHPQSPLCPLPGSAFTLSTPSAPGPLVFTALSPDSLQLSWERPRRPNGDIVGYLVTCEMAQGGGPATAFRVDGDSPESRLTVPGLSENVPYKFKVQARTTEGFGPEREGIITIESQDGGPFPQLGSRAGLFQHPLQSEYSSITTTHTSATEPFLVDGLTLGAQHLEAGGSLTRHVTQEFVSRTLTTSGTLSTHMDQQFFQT
T1 sequence (P23229 24-1073 isoform P23229-2 limits assumed): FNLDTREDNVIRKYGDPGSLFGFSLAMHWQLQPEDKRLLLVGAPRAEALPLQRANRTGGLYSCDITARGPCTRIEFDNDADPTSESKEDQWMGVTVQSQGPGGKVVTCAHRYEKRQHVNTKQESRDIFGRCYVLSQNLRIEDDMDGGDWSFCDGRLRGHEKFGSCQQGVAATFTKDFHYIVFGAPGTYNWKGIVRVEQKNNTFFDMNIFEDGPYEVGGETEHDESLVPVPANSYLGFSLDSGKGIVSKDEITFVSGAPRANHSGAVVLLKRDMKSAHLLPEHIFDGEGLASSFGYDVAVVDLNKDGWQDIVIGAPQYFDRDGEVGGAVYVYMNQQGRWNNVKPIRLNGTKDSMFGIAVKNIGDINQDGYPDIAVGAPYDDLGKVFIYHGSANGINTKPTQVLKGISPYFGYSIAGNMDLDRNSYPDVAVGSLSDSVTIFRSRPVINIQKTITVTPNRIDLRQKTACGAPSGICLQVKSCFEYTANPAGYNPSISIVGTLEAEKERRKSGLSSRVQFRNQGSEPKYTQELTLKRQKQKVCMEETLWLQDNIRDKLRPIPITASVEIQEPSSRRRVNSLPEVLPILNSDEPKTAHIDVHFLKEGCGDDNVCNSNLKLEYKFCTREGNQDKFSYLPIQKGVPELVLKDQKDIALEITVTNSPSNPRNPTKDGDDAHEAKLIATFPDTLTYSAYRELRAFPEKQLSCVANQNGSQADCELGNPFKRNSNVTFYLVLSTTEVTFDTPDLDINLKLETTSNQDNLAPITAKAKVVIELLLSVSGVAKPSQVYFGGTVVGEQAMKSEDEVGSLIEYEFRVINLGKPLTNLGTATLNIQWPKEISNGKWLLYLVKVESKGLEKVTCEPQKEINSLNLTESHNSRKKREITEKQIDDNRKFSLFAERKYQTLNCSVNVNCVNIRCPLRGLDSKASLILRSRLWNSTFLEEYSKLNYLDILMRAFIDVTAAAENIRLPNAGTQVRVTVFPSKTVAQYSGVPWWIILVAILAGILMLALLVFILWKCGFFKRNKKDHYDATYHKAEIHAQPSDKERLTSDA
Protocol: Validation of MTS-phage targets. Binding of single phage clones on whole cells was performed with a 10^9 TU input of each phage on 5x10^5 suspended cells in binding medium as described (Chambers et al. 2002. Nat Rev Cancer, 2:563-572). For overlay binding experiments, 5 x10^9 TU/ml of each phage was incubated with 10 µm tissue sections of OCT-frozen tissues and detected as described , with the EnVision system (DAKO) and 3-amino-9-ethylcarbazole (AEC) as substrate (Arap et al 2002, Nat Med, 8:121-127; Padua et al. 2008, Cell, 133:66-77). Phage overlay images were acquired with an EC3 Leica camera (Leica Microsystems, Milan, Italy). […] Protein amounts in collected fractions were followed by reading their OD at 280 nm, and selected fractions were concentrated by the use of Microcon centrifugal filter devices with cut-off 10,000 (Millipore) to remove residual synthetic peptides. Proteins were quantified with the Coomassie (Bradford) Protein Assay Kit (Pierce), and 500 ng of each sample was evaluated for the presence of specific integrin subunits with a standard ELISA assay. In parallel, the relative amount of targeted proteins was assessed by phage binding as described (66), on 2 µg of each sample and with an input of 10^9 TU of fd-tet or […]-phage. […]

α6 integrin/E-cadherin = molecular target: T2, α6 integrin/E-cadherin (Homo sapiens, UniProt P12830+P23229); test: Confocal imaging of α6 integrin and E-cadherin in explanted liver tumor tissues; format: in vivo, CD-1 nude mice; conditions: LS-174T liver tumors, cells injected with soluble peptide, 14 days
T2 construct: subjected to immunostaining with anti-α6 integrin and anti-E-cadherin antibodies followed by confocal microscopic imaging; endogenous in cells; host or cells: human CRC cells (LS-174T; also HCT-116m, SW-48, DLD-1, HT-29) xenografted into the liver of CD-1 nude mice
T2 sequence (P23229 24-1073 isoform P23229-2 limits assumed): as above
T2 sequence (P12830 155-882): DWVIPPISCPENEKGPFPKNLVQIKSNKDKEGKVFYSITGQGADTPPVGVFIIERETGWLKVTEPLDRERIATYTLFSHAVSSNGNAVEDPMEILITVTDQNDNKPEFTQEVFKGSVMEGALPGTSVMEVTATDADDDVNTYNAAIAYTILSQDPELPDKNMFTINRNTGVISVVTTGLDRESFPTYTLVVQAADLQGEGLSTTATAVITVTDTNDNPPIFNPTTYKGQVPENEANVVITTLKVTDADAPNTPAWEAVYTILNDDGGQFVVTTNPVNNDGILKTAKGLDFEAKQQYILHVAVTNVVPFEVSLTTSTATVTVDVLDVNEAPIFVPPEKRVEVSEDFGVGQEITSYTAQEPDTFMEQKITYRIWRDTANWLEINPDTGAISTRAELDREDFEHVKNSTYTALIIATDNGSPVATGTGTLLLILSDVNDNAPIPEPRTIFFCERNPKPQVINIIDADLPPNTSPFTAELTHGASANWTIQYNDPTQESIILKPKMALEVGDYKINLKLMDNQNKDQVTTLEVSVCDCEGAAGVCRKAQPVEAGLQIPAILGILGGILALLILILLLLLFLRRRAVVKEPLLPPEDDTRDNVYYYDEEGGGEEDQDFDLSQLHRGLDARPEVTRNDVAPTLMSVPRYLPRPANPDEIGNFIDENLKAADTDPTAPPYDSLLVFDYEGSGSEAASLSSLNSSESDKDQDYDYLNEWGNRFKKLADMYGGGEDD
T2 sequence (P16144 28-1822 partner): as the sequence (P16144 28-1822) above
Protocol: Immunostaining. OCT-frozen tissues were cut in 10 µm sections, paraffin-embedded tissues in 5 µm sections. For immunostaining of cell lines, 10^4 cells were plated on a SuperFrost Plus glass slide (Menzel-Glaser, Braunschweig, Germany) and were grown for 24 hours followed by fixation in 4% paraformaldehyde in PBS for 5 minutes at room temperature. Immunostaining was performed according to standard protocols. Fluorescent images were acquired with either a DMIRE2 confocal microscope or with a DMI 3000D microscope equipped with a DFC 360FX digital camera (all from Leica. Visible images were acquired with either an EC3 Leica (immunostaining of frozen tissues) or a High-Performance IEEE 1394 FireWire Digital CCD Camera (QIMAGING, Surrey, BC, Canada) (immunostaining of paraffin-embedded tissues). For the quantification of specific fluorescent signals, 3 confocal images (1024x1024 pixels, equivalent to 375x375 µm) for each sample, acquired by keeping all the parameters constant, were divided in two 8-bit images corresponding to the red and green fluorescence channels. […]
Animal models of human metastatic CRC. […] Mice were strictly monitored until completely awake, and oral ampicillin was administered for 5 days following the surgery. […] External metastatic areas were quantified using ImageJ software.

NCI-H630 cells [9] = test: Cell adhesion to peptides and proteins coated on microwells; format: cell-based, human
From the text: Preparation of cell lines with silenced expression of the MTS-tageted genes. A transient gene silencing approach was applied to cells used exclusively for short-term, in vitro experiments. NCI-H630 cells were transduced with ON-TARGETplus SmartPOOL siRNA for ITGA6 and CDH1, or with control siRNA (Dharmacon, Lafayette, CO). For each experimental point, 2x10^5 cells were reverse-transfected with either control, ITGA6, CDH1, or both siRNA pools, according to the manufacturer's protocol. To quantify the downmodulation of targeted genes, RNA and protein levels were evaluated after 24 and 72 hours, respectively. A stable gene silencing approach was preferred for cells used for long-term, in vivo experiments. For this purpose, 2x10^5 HCT-116m, SW-48, HT-29, or DLD-1 cells were transfected with shRNA plasmid pools targeting ITGA6 (sc-43129-SH) or CDH1 (sc-35242-SH), or with non-targeting control shRNA plasmid pool A (sc-108060) (all from Santa Cruz Biotechnologies), according to the manufacturer's protocol. Following selection in medium supplemented with 2.5 µg/ml puromycin, 6 clones for each experimental point were subjected to dotblot analysis to confirm selective protein down-regulation. […]
(§3) Adhesion, proliferation, and migration assays. […] Adhered cells were counted manually under a light microscope.

[10] = system: U293 cells transduced with α6 integrin, E-cadherin or both; test: Liver adhesion assay on frozen sections of grossly normal human liver; format: cell-based; conditions: 30 minutes, versus control peptide
From the text: Preparation of cells stably overexpressing the MTS-targeted proteins. The cDNA of FLAG-tagged human angiopoietin-like 6, inserted into pcDNA3.1 (+).Neo vector (pcDNA3.ANGL6), was a gift from Dr. Y. Oike (Japan Science and Technology Agency, Japan (Minn et al., 2007, Proc Natl Acad Sci USA, 104:6740-6745); the cDNA of human E-cadherin, cloned into a pcDNA3.1 (+). Neo vector (pcDNA3.CAD1) was a gift from Dr. C. Gottardi (North Western University Medical School, Chicago, IL (Bos, et al. 2009, Nature 459:1005-1009); the cDNA of β4 integrin, cloned into a PRK5 plasmid (pRK5.ITB4), was purchased from Addgene (Cambridge, MA); the cDNA of human α6A integrin, inserted in pLXSN plasmid (pLα6SN (Kuo et al. 1995, Proc Natl Acad Sci USA, 92:12085-12089), was a gift of Dr. A. Magrelli (La Sapienza University, Rome, Italy). The latter was PCR-amplified with the following primer pair: • 5'-[…]-3' (SEQ ID No 28) and • 5'-[…]-3' (SEQ ID No 29) and subcloned into a pcDNA3.1 (+). Hygro vector between HindIII and ApaI sites to obtain the pcDNA3.ITA6A plasmid. […]
as §3

CGIYRLRSC [Targeting synthetic LRS-motif peptide, from New England Peptides]
adhesiveness on hepatic tissues (SW-48 [1]): significantly inhibited | cell adhesion to human liver sections (NCI-H630 cells [2]): significant decrease in cell adhesion | adhesion to normal hepatic tissues (HCT-116 cells): not influenced | adhesiveness on hepatic tissues (HT-29): significantly inhibited | adhesiveness on hepatic tissues (DLD-1 [3]): significantly inhibited | adhesiveness on hepatic tissues (HCT-116m [4]): significantly inhibited | proliferation [5]: no effects | homing of CRC cells to the liver (external metastatic areas) (SW-48 [6]): diminished homing of CRC cells to the liver, which was significant | homing of CRC cells to the liver (external metastatic areas) (LS-174T): diminished homing of CRC cells to the liver, which was significant | homing of CRC cells to the liver (external metastatic areas) (DLD-1 [7]): diminished homing of CRC cells to the liver | homing of CRC cells to the liver (external metastatic areas) (HCCM-1544): diminished homing of CRC cells to the liver, which was significant | homing of CRC cells to the liver (external metastatic areas) (HCT-116m [8]): diminished homing of CRC cells to the liver, which was significant | liver tumors (external tumor areas) (LS-174T cells): significant reduction of liver tumors | enrichment of integrin subunit in peptide- and phage-targeted protein fractions (β4 integrin): substantial enrichment in the β4 subunit | overall morphology and levels of receptor complex in the tumors (α6 integrin/E-cadherin): unchanged | adherence of cells to microwells coated with the peptide (NCI-H630 cells [9]; NCI-H630 cells in which ITGA6 or both mRNAs were silenced, 1 µg substrate per well, 1 hour): impaired adherence | adherence of cells to microwells coated with the peptide (NCI-H630 cells [9]; NCI-H630 cells with both α6 integrin and E-cadherin downmodulated): particularly pronounced | liver adhesion [10]: inhibited liver adhesion of U293 cells only when they concomitantly expressed α6 integrin and E-cadherin
